Source: ChEMBL document CHEMBL1157125, “Modifications of C-2 on the pyrroloquinoline template aimed at the development of potent herpesvirus antivirals with improved aqueous solubility” (Bioorg Med Chem Lett, 2010)

Legend:
Assay type in all cases: ADME, organism-based
[1] = Oral bioavailability in rat; details: in vivo
[2] = Half life in rat; details: in vivo
[3] = Clearance in rat; details: in vivo
[4] = Volume of distribution at steady state in rat; details: in vivo, read-out: Vdss

bioavailability [1]: 66%
half-life [2]: 48 min
clearance [3]: 41.7 mL/min/kg
Vd [4]: 1.7 L/kg
Structure (SMILES): O=C(NCc1ccc(Cl)cc1)c1cn2c(CCO)cc3cc(CN4CCOCC4)cc(c1=O)c32
